Assay type in all cases: in vivo
The subject of assay [1] is Amaranthus palmeri (AMAPA). In words: Pre-emergence Test (Table B1). The conditions noted are these: 1000 g/ha, evaluated after 13 days.
Assay [2] has as its system Setaria faberi (SETFA). In words: Pre-emergence Test (Table B1). The conditions noted are these: 1000 g/ha, evaluated after 13 days.
The test system of assay [3] is Echinochloa crus-galli (ECHCG). Kind of assay: Pre-emergence Test (Table B1). Further details: key: 5=81-100%; 4=61-80%; 3=41-60%; 2=21-40%; 1=0-20%; 0=inactive. Conditions: 1000 g/ha, evaluated after 13 days.
The subject of assay [4] is Amaranthus retroflexus (AMARE). In words: Pre-emergence Test (Table B1). Conditions: 1000 g/ha, evaluated after 13 days.
Assay [5] deals with Zea mays (ZEAMX). Kind of assay: Pre-emergence Test (Table B1). Details: key: 5=81-100%; 4=61-80%; 3=41-60%; 2=21-40%; 1=0-20%; 0=inactive. Conditions: 1000 g/ha, evaluated after 13 days.
Assay [6] has as its system Ipomoea hederacea (IPOHE). Kind of assay: Pre-emergence Test (Table B1). The conditions noted are these: 1000 g/ha, evaluated after 13 days. Details: key: 5=81-100%; 4=61-80%; 3=41-60%; 2=21-40%; 1=0-20%; 0=inactive.
The subject of assay [7] is Amaranthus palmeri (AMAPA). Kind of assay: Post-emergence Test (Table B2). Conditions: evaluated after 13 days. The procedure: (§1) Seeds of a variety of test species are sown in standard soil in pots (Amaranthus palmeri (AMAPA), Setaria faberi (SETFA), Echinochloa crus-galli (ECHCG), (Amaranthus retroflexus (AMARE), Zea mays (ZEAMX), Ipomoea hederacea (IPOHE)). After 8 days cultivation under controlled conditions in a glasshouse (at 24° C./16° C., day/night; 14 hours light; 65% humidity), the plants are sprayed with an aqueous spray solution derived from the formulation of the technical active ingredient in acetone/water (50:50) solution containing 0.5% Tween 20 (polyoxyethelyene sorbitan monolaurate, CAS RN 9005-64-5). Compounds are applied at 1000 g/ha unless otherwise stated. The test plants are then grown in a glasshouse under controlled conditions in a glasshouse (at 24° C./16° C., day/night; 14 hours light; 65% humidity) and watered twice daily. After 13 days the test is evaluated for the percentage damage caused to the plant.

The subject of assay [8] is Amaranthus retroflexus (AMARE). Kind of assay: Post-emergence Test (Table B2). Conditions: evaluated after 13 days. The procedure: as §1
For assay [9], the system named is Setaria faberi (SETFA). In words: Post-emergence Test (Table B2). The conditions noted are these: evaluated after 13 days. The procedure:
as §1

In assay [10] the test system is Echinochloa crus-galli (ECHCG). In words: Post-emergence Test (Table B2). Details: key: 5=81-100%; 4=61-80%; 3=41-60%; 2=21-40%; 1=0-20%; 0=inactive. The conditions noted are these: evaluated after 13 days. As for the experimental part:
as §1

For assay [11], the system named is Ipomoea hederacea (IPOHE). Kind of assay: Post-emergence Test (Table B2). Details: key: 5=81-100%; 4=61-80%; 3=41-60%; 2=21-40%; 1=0-20%; 0=inactive. Conditions: evaluated after 13 days. As for the experimental part: as §1
Assay [12] relates to Zea mays (ZEAMX). Kind of assay: Post-emergence Test (Table B2). Details: key: 5=81-100%; 4=61-80%; 3=41-60%; 2=21-40%; 1=0-20%; 0=inactive. Conditions: evaluated after 13 days. The procedure:
as §1

The mark [13] stands for this setting: lower rate of 250 g per hectare.

Structures are written as SMILES.

`C=C(C)COC(=O)c1cc(-c2c(C)n(CC)c(-c3ccc(Cl)c(Cl)c3)c(C(=O)O)c2=O)c(F)cc1Cl` [Compound 1, 5-[4-chloro-2-fluoro-5-(2-methylallyloxycarbonyl)phenyl]-2-(3,4-dichlorophenyl)-1-ethyl-6-methyl-4-oxo-pyridine-3-carboxylic acid]: the “percentage damage caused to the plant, AMAPA” value in assay [1] and in assay [7] (1000 g/ha) was 5 (5=81-100%) throughout. Further, the “percentage damage caused to the plant, SETFA” value in [2] and in assay [9] (1000 g/ha) was 4 (4=61-80%) throughout. The entries for the “percentage damage caused to the plant, ECHCG” value in [3] and in assay [10] (1000 g/ha) were 1 (1=0-20%) and 5 (5=81-100%), respectively. Also, the “percentage damage caused to the plant, AMARE” value in [4] and in assay [8] (1000 g/ha) was 5 (5=81-100%) each time. The “percentage damage caused to the plant, ZEAMX” value in [5] is listed as 0; in [12] (1000 g/ha) it was 2 (2=21-40%). For the same compound, the “percentage damage caused to the plant, IPOHE” value in assay [6] and in [11] (1000 g/ha) was 2 (2=21-40%) each time.

`C#CCOC(=O)c1cc(-c2c(C)n(CC)c(-c3ccc(Cl)c(Cl)c3)c(C(=O)O)c2=O)c(F)cc1Cl` [Compound 2, 5-(4-chloro-2-fluoro-5-prop-2-ynoxycarbonyl-phenyl)-2-(3,4-dichlorophenyl)-1-ethyl-6-methyl-4-oxo-pyridine-3-carboxylic acid]: the “percentage damage caused to the plant, AMAPA” value in [1] and in assay [7] (1000 g/ha) was 5 (5=81-100%) throughout. For the same compound, the entries for the “percentage damage caused to the plant, SETFA” value in [2] and in [9] (1000 g/ha) were 1 (1=0-20%) and 5 (5=81-100%), respectively. Moreover, the “percentage damage caused to the plant, ECHCG” value was 0 in [3] and 4 (4=61-80%) in assay [10] (1000 g/ha). Besides, the “percentage damage caused to the plant, AMARE” value in assay [4] and in assay [8] (1000 g/ha) was 5 (5=81-100%) in each case. For the same compound, the “percentage damage caused to the plant, ZEAMX” value in assay [5] is 0; in assay [12] (1000 g/ha), 5 (5=81-100%). The “percentage damage caused to the plant, IPOHE” value was 0 in assay [6] and 4 (4=61-80%) in assay [11] (1000 g/ha).

For `C=CCOC(=O)c1cc(-c2c(C)n(CC)c(-c3ccc(Cl)c(Cl)c3)c(C(=O)O)c2=O)c(F)cc1Cl` [Compound 3, 5-(5-allyloxycarbonyl-4-chloro-2-fluoro-phenyl)-2-(3,4-dichlorophenyl)-1-ethyl-6-methyl-4-oxo-pyridine-3-carboxylic acid], the “percentage damage caused to the plant, AMAPA” value in assay [1] and in assay [7] (1000 g/ha) was 5 (5=81-100%) throughout. Besides, the “percentage damage caused to the plant, SETFA” value in [2] is on record as 1 (1=0-20%); in assay [9] (1000 g/ha) it was 5 (5=81-100%). The “percentage damage caused to the plant, ECHCG” value in [3] was 0; in assay [10] (1000 g/ha), 5 (5=81-100%). Also, the “percentage damage caused to the plant, AMARE” value in [4] and in assay [8] (1000 g/ha) was 5 (5=81-100%) in each case. For the same compound, the “percentage damage caused to the plant, ZEAMX” value is 0 in assay [5] and 4 (4=61-80%) in assay [12] (1000 g/ha). Also, the “percentage damage caused to the plant, IPOHE” value in assay [6] is recorded as 2 (2=21-40%); in [11] (1000 g/ha), 4 (4=61-80%).

Consider `C=CC(C)OC(=O)c1ccc(F)c(-c2c(C)n(CC)c(-c3ccc(Cl)c(Cl)c3)c(C(=O)O)c2=O)c1` (centres unmarked) [Compound 5, 2-(3,4-dichlorophenyl)-1-ethyl-5-[2-fluoro-5-(1-methylallyloxycarbonyl)phenyl]-6-methyl-4-oxo-pyridine-3-carboxylic acid], for which the “percentage damage caused to the plant, AMAPA” value in [7] (setting [13]) is on record as 3 (3=41-60%). Further, the “percentage damage caused to the plant, AMARE” value in assay [8] (setting [13]) is on record as 2 (2=21-40%). For the same compound, the “percentage damage caused to the plant, SETFA” value in assay [9] (setting [13]) is given as 1 (1=0-20%). For the same compound, in assay [10] (setting [13]), the “percentage damage caused to the plant, ECHCG” value was found to be 0. Further, the “percentage damage caused to the plant, IPOHE” value in assay [11] (setting [13]) was 1 (1=0-20%). For the same compound, the “percentage damage caused to the plant, ZEAMX” value in [12] (setting [13]) was 2 (2=21-40%).

For the compound `CCn1c(C)c(-c2cc(C(=O)OC(C)CN(C)C)ccc2F)c(=O)c(C(=O)O)c1-c1ccc(Cl)c(Cl)c1` (centres unmarked) [Compound 6, 2-(3,4-dichlorophenyl)-5-[5-[2-(dimethylamino)-1-methyl-ethoxy]carbonyl-2-fluoro-phenyl]-1-ethyl-6-methyl-4-oxo-pyridine-3-carboxylic acid], the “percentage damage caused to the plant, AMAPA” value in assay [7] (1000 g/ha) is on record as 4 (4=61-80%). The “percentage damage caused to the plant, AMARE” value in assay [8] (1000 g/ha) is listed as 3 (3=41-60%). Further, the “percentage damage caused to the plant, SETFA” value in assay [9] (1000 g/ha) is given as 1 (1=0-20%). Also, in assay [10] (1000 g/ha), the “percentage damage caused to the plant, ECHCG” value is recorded as 1 (1=0-20%). Moreover, the “percentage damage caused to the plant, IPOHE” value in assay [11] (1000 g/ha) was 0. Besides, in [12] (1000 g/ha), the “percentage damage caused to the plant, ZEAMX” value is given as 1 (1=0-20%).

As to `CCn1c(C)c(-c2cc(C(=O)OC(C)C(F)(F)F)ccc2F)c(=O)c(C(=O)O)c1-c1ccc(Cl)c(Cl)c1` (centres unmarked) [Compound 7, 2-(3,4-dichlorophenyl)-1-ethyl-5-[2-fluoro-5-(2,2,2-trifluoro-1-methyl-ethoxy)carbonyl-phenyl]-6-methyl-4-oxo-pyridine-3-carboxylic acid], the “percentage damage caused to the plant, AMAPA” value in assay [1] and in [7] (1000 g/ha) was 5 (5=81-100%) throughout. Moreover, the “percentage damage caused to the plant, SETFA” value is 2 (2=21-40%) in [2] and 4 (4=61-80%) in assay [9] (1000 g/ha). For the same compound, the figures for the “percentage damage caused to the plant, ECHCG” value in assay [3] and in [10] (1000 g/ha) were 2 (2=21-40%) and 3 (3=41-60%), respectively. The “percentage damage caused to the plant, AMARE” value in assay [4] and in assay [8] (1000 g/ha) was 5 (5=81-100%) in each case. For the same compound, the “percentage damage caused to the plant, ZEAMX” value in assay [5] is 1 (1=0-20%); in [12] (1000 g/ha), 2 (2=21-40%). For the same compound, the “percentage damage caused to the plant, IPOHE” value in assay [6] and in [11] (1000 g/ha) was 1 (1=0-20%) each time.

On to `CCn1c(C)c(-c2cc(C(=O)OC(C)C3CCCC3)ccc2F)c(=O)c(C(=O)O)c1-c1ccc(Cl)c(Cl)c1` (centres unmarked) [Compound 16, 5-[5-(1-cyclopentylethoxycarbonyl)-2-fluoro-phenyl]-2-(3,4-dichlorophenyl)-1-ethyl-6-methyl-4-oxo-pyridine-3-carboxylic acid], for which, in [7] (1000 g/ha), the “percentage damage caused to the plant, AMAPA” value is listed as 4 (4=61-80%). Besides, the “percentage damage caused to the plant, AMARE” value in assay [8] (1000 g/ha) is on record as 5 (5=81-100%). In addition, the “percentage damage caused to the plant, SETFA” value in assay [9] (1000 g/ha) is on record as 1 (1=0-20%). For the same compound, the “percentage damage caused to the plant, ECHCG” value in assay [10] (1000 g/ha) was 0. Besides, in assay [11] (1000 g/ha), the “percentage damage caused to the plant, IPOHE” value stood at 0. Moreover, the “percentage damage caused to the plant, ZEAMX” value in assay [12] (1000 g/ha) is 1 (1=0-20%).

Regarding `C#CCC(C)OC(=O)c1ccc(F)c(-c2c(C)n(CC)c(-c3ccc(Cl)c(Cl)c3)c(C(=O)O)c2=O)c1` (centres unmarked) [Compound 17, 2-(3,4-dichlorophenyl)-1-ethyl-5-[2-fluoro-5-(1-methylbut-3-ynoxycarbonyl)phenyl]-6-methyl-4-oxo-pyridine-3-carboxylic acid], the “percentage damage caused to the plant, AMAPA” value in [1] and in assay [7] (1000 g/ha) was 5 (5=81-100%) throughout. The “percentage damage caused to the plant, SETFA” value in [2] and in [9] (1000 g/ha) was 2 (2=21-40%) in each case. The “percentage damage caused to the plant, ECHCG” value is listed as 1 (1=0-20%) in [3] and 2 (2=21-40%) in assay [10] (1000 g/ha). The “percentage damage caused to the plant, AMARE” value in [4] and in assay [8] (1000 g/ha) was 5 (5=81-100%) in each case. For the same compound, the “percentage damage caused to the plant, ZEAMX” value in assay [5] and in assay [12] (1000 g/ha) was 1 (1=0-20%) throughout. In addition, in assay [6], the “percentage damage caused to the plant, IPOHE” value is 2 (2=21-40%).

In the case of `CCn1c(C)c(-c2cc(C(=O)OC(C)C#N)ccc2F)c(=O)c(C(=O)O)c1-c1ccc(Cl)c(Cl)c1` (centres unmarked) [Compound 41, 5-[5-(1-cyanoethoxycarbonyl)-2-fluoro-phenyl]-2-(3,4-dichlorophenyl)-1-ethyl-6-methyl-4-oxo-pyridine-3-carboxylic acid], the “percentage damage caused to the plant, AMAPA” value in assay [7] (setting [13]) is given as 2 (2=21-40%). In addition, the “percentage damage caused to the plant, AMARE” value in [8] (setting [13]) is 2 (2=21-40%). In assay [9] (setting [13]), the “percentage damage caused to the plant, SETFA” value is recorded as 2 (2=21-40%). For the same compound, the “percentage damage caused to the plant, ECHCG” value in assay [10] (setting [13]) is 0. In addition, in assay [11] (setting [13]), the “percentage damage caused to the plant, IPOHE” value is recorded as 1 (1=0-20%). The “percentage damage caused to the plant, ZEAMX” value in [12] (setting [13]) is listed as 0.

These data come from patent US20260060250A1, “HERBICIDAL PYRIDONE DERIVATIVES” (SYNGENTA CROP PROTECTION AG, priority 2022, published 2026).
